Measurements published in patent US11136313B2, “Compounds, compositions, and methods for modulating CFTR” (Proteostasis Therapeutics, Inc., priority 2015, dated 2021).

What follows are compounds tested against T1, ΔF508-CFTR (Homo sapiens, UniProt P13569, DEL508-508) (assay: hBE equivalent current (Ieq) assay: AUC of equivalent chloride current after forskolin/VX-770 in primary lung epithelial cells homozygous for ΔF508). Conditions: relative to CFTR amplifier (Compound A)+VX-809 (3 uM), compound at 10 uM and Compound A at 3 uM, 24 h treatment.
T1 construct: Primary lung epithelial cells homozygous for the Cystic Fibrosis-causing ΔF508 mutation were differentiated for a minimum of 4 weeks; endogenous in cells; host or cells: primary lung epithelial cells (hBE) homozygous for ΔF508, differentiated at an air-liquid interface
T1 sequence (P13569 with tags, fused parts or gaps DEL508-508): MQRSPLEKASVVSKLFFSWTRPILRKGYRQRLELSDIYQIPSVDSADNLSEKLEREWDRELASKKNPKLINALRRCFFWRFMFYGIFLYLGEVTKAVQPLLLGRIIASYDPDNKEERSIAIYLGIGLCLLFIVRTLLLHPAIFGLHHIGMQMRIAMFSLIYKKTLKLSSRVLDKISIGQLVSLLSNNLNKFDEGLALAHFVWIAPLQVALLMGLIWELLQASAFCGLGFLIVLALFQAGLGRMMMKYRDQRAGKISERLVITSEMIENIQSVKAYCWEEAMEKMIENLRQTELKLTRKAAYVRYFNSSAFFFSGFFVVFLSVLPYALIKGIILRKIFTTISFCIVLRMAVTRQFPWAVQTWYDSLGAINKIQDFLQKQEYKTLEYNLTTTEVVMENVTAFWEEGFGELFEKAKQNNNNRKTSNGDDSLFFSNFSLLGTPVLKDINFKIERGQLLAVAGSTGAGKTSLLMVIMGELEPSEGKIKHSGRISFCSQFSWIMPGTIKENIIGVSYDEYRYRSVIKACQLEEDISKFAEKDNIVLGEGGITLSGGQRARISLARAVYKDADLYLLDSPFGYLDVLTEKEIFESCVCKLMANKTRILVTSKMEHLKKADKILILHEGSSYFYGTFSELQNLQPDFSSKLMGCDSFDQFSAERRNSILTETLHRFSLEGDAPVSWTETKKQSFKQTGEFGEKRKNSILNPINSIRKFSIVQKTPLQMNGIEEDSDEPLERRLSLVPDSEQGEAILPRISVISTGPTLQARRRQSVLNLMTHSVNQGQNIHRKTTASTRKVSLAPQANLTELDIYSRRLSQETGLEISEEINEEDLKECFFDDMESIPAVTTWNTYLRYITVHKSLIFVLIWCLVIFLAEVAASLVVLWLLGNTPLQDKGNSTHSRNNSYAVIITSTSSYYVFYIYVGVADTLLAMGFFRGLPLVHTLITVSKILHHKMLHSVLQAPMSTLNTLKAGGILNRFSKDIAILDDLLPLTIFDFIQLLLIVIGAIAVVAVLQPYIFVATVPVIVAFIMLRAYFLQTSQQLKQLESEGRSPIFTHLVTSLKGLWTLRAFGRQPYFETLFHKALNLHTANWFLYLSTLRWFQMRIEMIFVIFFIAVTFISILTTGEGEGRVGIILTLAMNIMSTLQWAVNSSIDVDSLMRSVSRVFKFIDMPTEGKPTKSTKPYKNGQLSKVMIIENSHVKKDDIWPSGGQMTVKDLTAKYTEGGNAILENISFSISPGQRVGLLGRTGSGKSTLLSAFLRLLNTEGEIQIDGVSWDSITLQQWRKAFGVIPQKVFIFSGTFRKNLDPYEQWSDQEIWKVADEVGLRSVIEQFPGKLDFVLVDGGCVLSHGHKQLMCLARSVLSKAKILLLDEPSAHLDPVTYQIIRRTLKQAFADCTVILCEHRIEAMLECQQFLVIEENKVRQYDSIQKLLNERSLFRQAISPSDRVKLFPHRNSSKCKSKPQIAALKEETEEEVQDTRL
Type: cell-based
Summary of the method: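 ΔF508/ΔF508 primary human bronchial epithelia, differentiated ≥4 weeks at air-liquid interface, treated basolaterally with compound for 24 h at 37 °C. Transepithelial voltage and conductance by 24-channel current clamp at 36 °C: benzamil, then forskolin plus VX-770 for 27 min, then bumetanide; AUC of equivalent chloride current over vehicle.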
For `COc1cccc(COc2ccc(C)c3nc(-c4sc5ccccc5c4C)cc(C(=O)[O-])c23)c1.[Na+]` [Compound 293, Sodium 5-[(3-Methoxyphenyl)methoxy]-8-methyl-2-(3-methyl-1-benzothiophen-2-yl)quinoline-4-carboxylate], the Activity was “++ (activity>50% of CFTR amplifier+VX-809 (3 uM) with compound at 10 uM and Compound A at 3 uM)”.
In the case of `Cc1c(-c2cc(C(=O)[O-])c3c(OCc4c(F)cccc4F)ccc(C)c3n2)sc2ccccc12.[Na+]` [Compound 294, Sodium 5-[(2,6-Difluorophenyl)methoxy]-8-methyl-2-(3-methyl-1-benzothiophen-2-yl)quinoline-4-carboxylate], the Activity is reported as “++ (activity>50% of CFTR amplifier+VX-809 (3 uM) with compound at 10 uM and Compound A at 3 uM)”.
In the case of `Cc1c(-c2cc(C(=O)[O-])c3c(OCc4ccc5c(c4)OCO5)ccc(C)c3n2)sc2ccccc12.[Na+]` [Compound 295, Sodium 5-(2H-1,3-Benzodioxol-5-ylmethoxy)-8-methyl-2-(3-methyl-1-benzothiophen-2-yl)quinoline-4-carboxylate], the Activity is reported as “++ (activity>50% of CFTR amplifier+VX-809 (3 uM) with compound at 10 uM and Compound A at 3 uM)”.
In the case of `Cc1c(-c2cc(C(=O)[O-])c3c(OCc4cccc5c4OCO5)ccc(C)c3n2)sc2ccccc12.[Na+]` [Compound 296], the Activity is reported as “++ (activity>50% of CFTR amplifier+VX-809 (3 uM) with compound at 10 uM and Compound A at 3 uM)”.
In the case of `Cc1c(-c2cc(C(=O)[O-])c3c(OCc4cccc(C#N)c4)ccc(C)c3n2)sc2ccccc12.[Na+]` [Compound 298, Sodium 5-[(3-Cyanophenyl)methoxy]-8-methyl-2-(3-methyl-1-benzothiophen-2-yl)quinoline-4-carboxylate], the Activity is reported as “++ (activity>50% of CFTR amplifier+VX-809 (3 uM) with compound at 10 uM and Compound A at 3 uM)”.
`Cc1c(-c2cc(C(=O)[O-])c3c(O[C@H]4CCC[C@@H](c5ccccc5)C4)ccc(C)c3n2)oc2ccccc12.[Na+]` [Compound 299] was tested, and the Activity was “++ (activity>50% of CFTR amplifier+VX-809 (3 uM) with compound at 10 uM and Compound A at 3 uM)”.
With `Cc1c(-c2cc(C(=O)[O-])c3c(O[C@@H]4CCC[C@H](c5ccccc5)C4)ccc(C)c3n2)oc2ccccc12.[Na+]` [Compound 300] the Activity was “++ (activity>50% of CFTR amplifier+VX-809 (3 uM) with compound at 10 uM and Compound A at 3 uM)”.
In the case of `Cc1c(-c2cc(C(=O)[O-])c3c(O[C@@H]4CCC[C@@H](c5ccccc5)C4)ccc(C)c3n2)oc2ccccc12.[Na+]` [Compound 301], the Activity is reported as “++ (activity>50% of CFTR amplifier+VX-809 (3 uM) with compound at 10 uM and Compound A at 3 uM)”.
In the case of `Cc1c(-c2cc(C(=O)[O-])c3c(O[C@H]4CCC[C@H](c5ccccc5)C4)ccc(C)c3n2)oc2ccccc12.[Na+]` [Compound 302], the Activity is reported as “++ (activity>50% of CFTR amplifier+VX-809 (3 uM) with compound at 10 uM and Compound A at 3 uM)”.
`Cc1ccccc1COc1ccc(C)c2nc(-c3sc4ccccc4c3C)cc(C(=O)[O-])c12.[Na+]` [Compound 303] was tested, and the Activity was “++ (activity>50% of CFTR amplifier+VX-809 (3 uM) with compound at 10 uM and Compound A at 3 uM)”.
For `Cc1cccc(COc2ccc(C)c3nc(-c4sc5ccccc5c4C)cc(C(=O)[O-])c23)c1.[Na+]` [Compound 304], the Activity was “++ (activity>50% of CFTR amplifier+VX-809 (3 uM) with compound at 10 uM and Compound A at 3 uM)”.
In the case of `Cc1cccc(C)c1COc1ccc(C)c2nc(-c3sc4ccccc4c3C)cc(C(=O)[O-])c12.[Na+]` [Compound 305], the Activity is reported as “++ (activity>50% of CFTR amplifier+VX-809 (3 uM) with compound at 10 uM and Compound A at 3 uM)”.
In the case of `Cc1c(-c2cc(C(=O)[O-])c3c(O[C@@H](CO)c4ccccc4)ccc(C)c3n2)sc2ccccc12.[Na+]` [Compound 306], the Activity is reported as “++ (activity>50% of CFTR amplifier+VX-809 (3 uM) with compound at 10 uM and Compound A at 3 uM)”.
For `Cc1c(-c2cc(C(=O)[O-])c3c(O[C@H](CO)c4ccccc4)ccc(C)c3n2)sc2ccccc12.[Na+]` [Compound 307], the Activity was “++ (activity>50% of CFTR amplifier+VX-809 (3 uM) with compound at 10 uM and Compound A at 3 uM)”.
In the case of `COC[C@H](Oc1ccc(C)c2nc(-c3sc4ccccc4c3C)cc(C(=O)[O-])c12)c1ccccc1.[Na+]` [Compound 308], the Activity is reported as “++ (activity>50% of CFTR amplifier+VX-809 (3 uM) with compound at 10 uM and Compound A at 3 uM)”.
With `COC[C@@H](Oc1ccc(C)c2nc(-c3sc4ccccc4c3C)cc(C(=O)[O-])c12)c1ccccc1.[Na+]` [Compound 309] the Activity was “++ (activity>50% of CFTR amplifier+VX-809 (3 uM) with compound at 10 uM and Compound A at 3 uM)”.
In the case of `Cc1c(-c2cc(C(=O)[O-])c3c(O[C@@H](CCO)c4ccccc4)ccc(C)c3n2)sc2ccccc12.[Na+]` [Compound 310], the Activity is reported as “++ (activity>50% of CFTR amplifier+VX-809 (3 uM) with compound at 10 uM and Compound A at 3 uM)”.
`Cc1c(-c2cc(C(=O)[O-])c3c(O[C@H](CCO)c4ccccc4)ccc(C)c3n2)sc2ccccc12.[Na+]` [Compound 311] was tested, and the Activity was “++ (activity>50% of CFTR amplifier+VX-809 (3 uM) with compound at 10 uM and Compound A at 3 uM)”.
With `COCC[C@H](Oc1ccc(C)c2nc(-c3sc4ccccc4c3C)cc(C(=O)[O-])c12)c1ccccc1.[Na+]` [Compound 312] the Activity was “++ (activity>50% of CFTR amplifier+VX-809 (3 uM) with compound at 10 uM and Compound A at 3 uM)”.
In the case of `COCC[C@@H](Oc1ccc(C)c2nc(-c3sc4ccccc4c3C)cc(C(=O)[O-])c12)c1ccccc1.[Na+]` [Compound 313], the Activity is reported as “++ (activity>50% of CFTR amplifier+VX-809 (3 uM) with compound at 10 uM and Compound A at 3 uM)”.
In the case of `Cc1c(-c2cc(C(=O)[O-])c3c(O[C@H]4C[C@H](C)C[C@H](C)C4)ccc(C)c3n2)sc2ccccc12.[Na+]` [Compound 314], the Activity is reported as “++ (activity>50% of CFTR amplifier+VX-809 (3 uM) with compound at 10 uM and Compound A at 3 uM)”.
With `Cc1c(-c2cc(C(=O)[O-])c3c(O[C@@H]4C[C@H](C)C[C@H](C)C4)ccc(C)c3n2)sc2ccccc12.[Na+]` [Compound 315] the Activity was “++ (activity>50% of CFTR amplifier+VX-809 (3 uM) with compound at 10 uM and Compound A at 3 uM)”.
With `Cc1c(-c2cc(C(=O)[O-])c3c(OC4CC(C)(C)C4)ccc(C)c3n2)sc2ccccc12.[Na+]` [Compound 318] the Activity was “++ (activity>50% of CFTR amplifier+VX-809 (3 uM) with compound at 10 uM and Compound A at 3 uM)”.
For `Cc1c(-c2cc(C(=O)[O-])c3c(OCC4CCC4)ccc(C)c3n2)sc2ccccc12.[Na+]` [Compound 319], the Activity was “++ (activity>50% of CFTR amplifier+VX-809 (3 uM) with compound at 10 uM and Compound A at 3 uM)”.
In the case of `Cc1c(-c2cc(C(=O)[O-])c3c(OC[C@H]4C[C@@](C)(O)C4)ccc(C)c3n2)sc2ccccc12.[Na+]` [Compound 320], the Activity is reported as “++ (activity>50% of CFTR amplifier+VX-809 (3 uM) with compound at 10 uM and Compound A at 3 uM)”.
`Cc1c(-c2cc(C(=O)[O-])c3c(OC[C@H]4C[C@](C)(O)C4)ccc(C)c3n2)sc2ccccc12.[Na+]` [Compound 321] was tested, and the Activity was “++ (activity>50% of CFTR amplifier+VX-809 (3 uM) with compound at 10 uM and Compound A at 3 uM)”.
For `Cc1c(-c2cc(C(=O)[O-])c3c(OC[C@H]4CC[C@@](C)(O)CC4)ccc(C)c3n2)sc2ccccc12.[Na+]` [Compound 322], the Activity was “++ (activity>50% of CFTR amplifier+VX-809 (3 uM) with compound at 10 uM and Compound A at 3 uM)”.
In the case of `Cc1c(-c2cc(C(=O)[O-])c3c(OC[C@H]4CC[C@](C)(O)CC4)ccc(C)c3n2)sc2ccccc12.[Na+]` [Compound 323], the Activity is reported as “++ (activity>50% of CFTR amplifier+VX-809 (3 uM) with compound at 10 uM and Compound A at 3 uM)”.
`CO[C@]1(C)C[C@H](COc2ccc(C)c3nc(-c4sc5ccccc5c4C)cc(C(=O)[O-])c23)C1.[Na+]` [Compound 324] was tested, and the Activity was “++ (activity>50% of CFTR amplifier+VX-809 (3 uM) with compound at 10 uM and Compound A at 3 uM)”.
For `CO[C@]1(C)C[C@@H](COc2ccc(C)c3nc(-c4sc5ccccc5c4C)cc(C(=O)[O-])c23)C1.[Na+]` [Compound 325], the Activity was “++ (activity>50% of CFTR amplifier+VX-809 (3 uM) with compound at 10 uM and Compound A at 3 uM)”.
`CO[C@]1(C)CC[C@H](COc2ccc(C)c3nc(-c4sc5ccccc5c4C)cc(C(=O)[O-])c23)CC1.[Na+]` [Compound 326] was tested, and the Activity was “++ (activity>50% of CFTR amplifier+VX-809 (3 uM) with compound at 10 uM and Compound A at 3 uM)”.
For `CO[C@]1(C)CC[C@@H](COc2ccc(C)c3nc(-c4sc5ccccc5c4C)cc(C(=O)[O-])c23)CC1.[Na+]` [Compound 327], the Activity was “++ (activity>50% of CFTR amplifier+VX-809 (3 uM) with compound at 10 uM and Compound A at 3 uM)”.
`Cc1ccc(OC(C)c2ccccc2)c2c(C(=O)[O-])cc(-c3cc4ccccn4c3)nc12.[Na+]` (stereo not drawn) [Compound 328] was tested, and the Activity was “++ (activity>50% of CFTR amplifier+VX-809 (3 uM) with compound at 10 uM and Compound A at 3 uM)”.
In the case of `Cc1c(-c2cc(C(=O)[O-])c3c(O[C@@H](C)C4CCOCC4)ccc(C)c3n2)sc2ccccc12.[Na+]` [Compound 329], the Activity is reported as “++ (activity>50% of CFTR amplifier+VX-809 (3 uM) with compound at 10 uM and Compound A at 3 uM)”.
With `Cc1c(-c2cc(C(=O)[O-])c3c(O[C@H](C)C4CCOCC4)ccc(C)c3n2)sc2ccccc12.[Na+]` [Compound 330] the Activity was “++ (activity>50% of CFTR amplifier+VX-809 (3 uM) with compound at 10 uM and Compound A at 3 uM)”.
For `Cc1c(-c2cc(C(=O)[O-])c3c(OC4CCOCC4)ccc(C)c3n2)sc2ccccc12.[Na+]` [Compound 331], the Activity was “++ (activity>50% of CFTR amplifier+VX-809 (3 uM) with compound at 10 uM and Compound A at 3 uM)”.
For `Cc1c(-c2cc(C(=O)[O-])c3c(OC4CCOCC4)ccc(C)c3n2)oc2ccccc12.[Na+]` [Compound 332], the Activity was “++ (activity>50% of CFTR amplifier+VX-809 (3 uM) with compound at 10 uM and Compound A at 3 uM)”.
`Cc1c(-c2cc(C(=O)[O-])c3c(OC4CC(C)(C)OC(C)(C)C4)ccc(C)c3n2)sc2ccccc12.[Na+]` [Compound 333] was tested, and the Activity was “++ (activity>50% of CFTR amplifier+VX-809 (3 uM) with compound at 10 uM and Compound A at 3 uM)”.
For `Cc1c(-c2cc(C(=O)[O-])c3c(OC4CC(C)(C)OC(C)(C)C4)ccc(C)c3n2)oc2ccccc12.[Na+]` [Compound 334], the Activity was “++ (activity>50% of CFTR amplifier+VX-809 (3 uM) with compound at 10 uM and Compound A at 3 uM)”.
